Reference: the supplement of paper PMC11451515

System: SEM cells
Test: cell viability relative to DMSO control; higher = less cytotoxic
Conditions: 48 h
Summary of the method: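 Viability was expressed as a per-plate percentage of DMSO wells, with cell-free wells as background. Leukemia cells (NOMO1 or SEM at 500 cells/well, P12-Ichikawa at 1000 cells/well) were adapted for at least four passages in each medium and seeded in 1536-well plates (5 μl). Library compounds in DMSO were pin-dosed over an 11-point threefold series from 47 μM to 0.79 nM, and CellTiter-Glo One luminescence was read after 48 h at 37°C.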

[1] = HPLM + 10% dialyzed FBS, 0.000781 µM
[2] = HPLM + 10% dialyzed FBS, 0.00234 µM
[3] = HPLM + 10% dialyzed FBS, 0.00702 µM
[4] = HPLM + 10% dialyzed FBS, 0.0211 µM
[5] = HPLM + 10% dialyzed FBS, 0.0632 µM
[6] = HPLM + 10% dialyzed FBS, 0.19 µM
[7] = HPLM + 10% dialyzed FBS, 0.569 µM
[8] = HPLM + 10% dialyzed FBS, 1.71 µM
[9] = HPLM + 10% dialyzed FBS, 5.12 µM
[10] = HPLM + 10% dialyzed FBS, 15.4 µM
[11] = HPLM + 10% dialyzed FBS, 46.1 µM
[12] = RPMI 5 mM glucose + 10% FBS, 0.000781 µM
[13] = RPMI 5 mM glucose + 10% FBS, 0.00234 µM
[14] = RPMI 5 mM glucose + 10% FBS, 0.00702 µM
[15] = RPMI 5 mM glucose + 10% FBS, 0.0211 µM
[16] = RPMI 5 mM glucose + 10% FBS, 0.0632 µM
[17] = RPMI 5 mM glucose + 10% FBS, 0.19 µM
[18] = RPMI 5 mM glucose + 10% FBS, 0.569 µM
[19] = RPMI 5 mM glucose + 10% FBS, 1.71 µM
[20] = RPMI 5 mM glucose + 10% FBS, 5.12 µM
[21] = RPMI 5 mM glucose + 10% FBS, 15.4 µM
[22] = RPMI 5 mM glucose + 10% FBS, 46.1 µM
[23] = RPMI 5 mM glucose + 10% dialyzed FBS, 0.000781 µM
[24] = RPMI 5 mM glucose + 10% dialyzed FBS, 0.00234 µM
[25] = RPMI 5 mM glucose + 10% dialyzed FBS, 0.00702 µM
[26] = RPMI 5 mM glucose + 10% dialyzed FBS, 0.0211 µM
[27] = RPMI 5 mM glucose + 10% dialyzed FBS, 0.0632 µM
[28] = RPMI 5 mM glucose + 10% dialyzed FBS, 0.19 µM
[29] = RPMI 5 mM glucose + 10% dialyzed FBS, 0.569 µM
[30] = RPMI 5 mM glucose + 10% dialyzed FBS, 1.71 µM
[31] = RPMI 5 mM glucose + 10% dialyzed FBS, 5.12 µM
[32] = RPMI 5 mM glucose + 10% dialyzed FBS, 15.4 µM
[33] = RPMI 5 mM glucose + 10% dialyzed FBS, 46.1 µM

| Compound | cell viability [1] [%] | cell viability [2] [%] | cell viability [3] [%] | cell viability [4] [%] | cell viability [5] [%] | cell viability [6] [%] | cell viability [7] [%] | cell viability [8] [%] | cell viability [9] [%] | cell viability [10] [%] | cell viability [11] [%] | cell viability [12] [%] | cell viability [13] [%] | cell viability [14] [%] | cell viability [15] [%] | cell viability [16] [%] | cell viability [17] [%] | cell viability [18] [%] | cell viability [19] [%] | cell viability [20] [%] | cell viability [21] [%] | cell viability [22] [%] | cell viability [23] [%] | cell viability [24] [%] | cell viability [25] [%] | cell viability [26] [%] | cell viability [27] [%] | cell viability [28] [%] | cell viability [29] [%] | cell viability [30] [%] | cell viability [31] [%] | cell viability [32] [%] | cell viability [33] [%] |
| --- | --- | --- | --- | --- | --- | --- | --- | --- | --- | --- | --- | --- | --- | --- | --- | --- | --- | --- | --- | --- | --- | --- | --- | --- | --- | --- | --- | --- | --- | --- | --- | --- | --- |
| Cc1c[nH]c(-c2cnc(NCCNc3ccc(C#N)cn3)nc2-c2ccc(Cl)cc2Cl)n1 | 62.7 | 74.5 | 62 | 65.9 | 65.2 | 70.5 | 45.3 | 71.5 | 19.6 | 26.8 | 2.9 | 74.9 | 93.6 | 70.9 | 87.6 | 85.2 | 101 | 66.9 | 86.4 | 34.9 | 68.8 | 4.99 | 70.2 | 80.9 | 59.9 | 67 | 69.6 | 72.2 | 52.9 | 84 | 24 | 33.7 | 3.76 |
| OCCC#Cc1nc(-c2ccc(F)cc2)c(-c2ccncc2)n1CCCc1ccccc1 | 86.8 | 115 | 115 | 120 | 118 | 109 | 131 | 123 | 124 | 105 | 88.4 | 98.3 | 122 | 112 | 118 | 103 | 130 | 116 | 127 | 126 | 107 | 85.8 |  |  |  |  |  |  |  |  |  |  |  |
| CON(C)C(=O)N1/N=C(S[C@@]1(CCCN)C2=CC=CC=C2)/C3=CC(=CC=C3F)F | 96.3 | 99.9 | 42.5 | 21.7 | 23.9 | 24.4 | 22 | 21.3 | 10.6 | 19.7 | 15.3 |  |  |  |  |  |  |  |  |  |  |  | 100 | 114 | 111 | 30.4 | 24.4 | 22.7 | 24.1 | 24.8 | 13 | 22.2 | 16.4 |
| CC(C)(O)/C=C\C(=O)[C@](C)(O)[C@H]1[C@H](O)C[C@]2(C)[C@@H]3CC=C4[C@@H](C=C(O)C(=O)C4(C)C)[C@]3(C)C(=O)C[C@@]12C | 92.4 | 91.3 | 119 | 100 | 51.8 | 24 | 24 | 21.7 | 20.4 | 6.86 | 4.91 | 97.5 | 85.7 | 109 | 101 | 35 | 15.8 | 13.7 | 11 | 11.9 | 6.54 | 5.36 | 104 | 78.7 | 103 | 108 | 55.6 | 17.5 | 14.2 | 12.8 | 12.5 | 6.59 | 5.46 |
| COC1=CC=C2CN(C)CC[C@@]34\C=C/[C@H](O)C[C@@H]3OC1=C24 | 119 | 113 | 115 | 27 | 117 | 111 | 114 | 126 | 103 | 119 | 103 |  |  |  |  |  |  |  |  |  |  |  | 108 | 111 | 126 | 25.3 | 114 | 125 | 104 | 107 | 96.3 | 100 | 99.3 |
| NC(=O)Nc1cc(-c2cccc(F)c2)sc1C(=O)N[C@H]1CCCNC1 | 88.8 | 62 | 66.4 | 46.3 | 38.2 | 28.6 | 27.5 | 27.1 | 23.3 | 19 | 20.3 | 110 | 84.4 | 71.6 | 45.2 | 45 | 37.6 | 32.7 | 27.7 | 20.4 | 11.3 | 13.7 | 98.9 | 69.4 | 52.4 | 44.5 | 32.2 | 26.3 | 25.5 | 21.3 | 16.7 | 12.4 | 10.6 |
| COC1=CC=C(C=C1O)C/2=C/C(=O)C3=C(O2)C=C(O[C@@H]4O[C@H](CO[C@@H]5O[C@@H](C)[C@H](O)[C@@H](O)[C@H]5O)[C@@H](O)[C@H](O)[C@H]4O)C=C3O | 95.1 | 103 | 106 | 114 | 124 | 108 | 122 | 118 | 102 | 129 | 113 | 115 | 108 | 107 | 111 | 122 | 113 | 100 | 106 | 85.9 | 105 | 103 | 102 | 103 | 111 | 102 | 123 | 111 | 112 | 114 | 93.8 | 101 | 99.2 |
| OCc1ccc(-c2ccc(-c3ccc(CO)s3)o2)s1 | 117 | 118 | 94.3 | 115 | 107 | 103 | 104 | 103 | 88.6 | 77.7 | 93.8 | 87.3 | 105 | 83.8 | 81.5 | 79.1 | 87.8 | 79.3 | 80.6 | 77.1 | 61.3 | 66.7 | 114 | 124 | 95.7 | 113 | 119 | 105 | 110 | 99.4 | 83.9 | 85.8 | 114 |
| C[C@]12CCC\3=C\4CCC(=O)\C=C4CC[C@H]3[C@@H]1CC[C@@]2(O)CC#N | 97.2 | 103 | 123 | 97 | 124 | 118 | 121 | 144 | 137 | 132 | 115 | 117 | 124 | 116 | 88.3 | 143 | 116 | 138 | 130 | 146 | 139 | 128 |  |  |  |  |  |  |  |  |  |  |  |
| CC(NCCc1ccc(O)cc1)C(O)c1ccc(O)cc1 (centres undefined) | 84.4 | 80.5 | 73 | 89 | 86.1 | 84.1 | 74.6 | 98.7 | 90.7 | 105 | 84.8 | 106 | 110 | 109 | 111 | 97.5 | 103 | 92.5 | 107 | 98.2 | 103 | 99.4 | 133 | 119 | 122 | 118 | 117 | 110 | 90.6 | 112 | 105 | 111 | 81.9 |
| OCCn1cc(-c2cnc3nnn(Cc4ccc5ncccc5c4)c3n2)cn1 | 102 | 107 | 99.5 | 98.1 | 97.9 | 89.3 | 89.5 | 91.5 | 85.3 | 72.1 | 38.5 | 122 | 138 | 124 | 133 | 120 | 116 | 109 | 90.7 | 82.1 | 73.9 | 26.6 | 84.6 | 97.9 | 102 | 108 | 107 | 106 | 118 | 97.3 | 82 | 60.5 | 33.4 |
| COc1cccc2c1[C@]13CCN(CC4CC4)[C@H](C2)[C@]1(OC)CCC(=O)C3 | 71.3 | 90.6 | 20 | 108 | 106 | 105 | 107 | 109 | 116 | 120 | 111 | 89.4 | 123 | 8.7 | 113 | 116 | 107 | 97 | 113 | 122 | 98.4 | 110 | 81.2 | 108 | 18.8 | 99.8 | 105 | 106 | 84.6 | 97.4 | 93.3 | 95.6 | 80.7 |
| CC(C)Cc1ccc(C(C)C(=O)O)cc1 (centres undefined) | 68.7 | 84.7 | 80.1 | 78.6 | 84.9 | 90.7 | 82.2 | 78.3 | 71.3 | 85.6 | 26.4 | 90.1 | 69.4 | 80.9 | 91.3 | 89.4 | 81.9 | 98.8 | 87 | 95.4 | 77.2 | 22.8 | 93.5 | 84.4 | 89.5 | 90.9 | 87.5 | 98.3 | 99.5 | 98.6 | 100 | 77.5 | 35.7 |
| CCN1CCCC1CNC(=O)c1cc([S+](N)(=O)[O-])ccc1OC (centres undefined) | 90 | 88.7 | 97.6 | 87.3 | 102 | 90.1 | 102 | 107 | 108 | 69.1 | 102 | 96.8 | 102 | 112 | 92.4 | 105 | 111 | 106 | 112 | 102 | 66 | 97.8 | 102 | 91.6 | 110 | 113 | 118 | 122 | 107 | 123 | 133 | 59.1 | 121 |
| CCOC(=O)\C1=C\[C@@H](OC(CC)CC)[C@H](NC(C)=O)[C@@H](N)C1 | 73.2 | 82.3 | 95.9 | 97.5 | 77.9 | 102 | 91.4 | 70.8 | 101 | 96.8 | 56 | 77.6 | 85.1 | 93.3 | 99.1 | 85 | 92.7 | 96.8 | 78.8 | 88.8 | 111 | 89.3 | 75.6 | 82.7 | 92.3 | 84.9 | 75.5 | 98.2 | 102 | 73.7 | 97.7 | 104 | 68.3 |
| OC1=CC2=C(C(=C1)O)C(=O)\C(=C(/O2)C3=CC(=C(O)C=C3)O)O | 89.1 | 84.2 | 93.4 | 99.4 | 98.2 | 94.4 | 97.4 | 110 | 111 | 94.8 | 75.1 | 79.7 | 97.7 | 106 | 96.1 | 99.6 | 109 | 106 | 105 | 108 | 102 | 71.5 | 83.6 | 85.2 | 92.1 | 88.3 | 111 | 104 | 115 | 101 | 92.6 | 104 | 69.8 |
